Molecules are shown by their SMILES. ≈ marks a conversion by molar mass, not a printed value. *1 amine or outer side, *2 acyl side, *3 side chain or, on linkers, in order; H or OH if unused. Where a SMILES comes first, the peptide text is derived from it. Bridges are numbered along the chain shown (N, C = ends). Side-chain parts run from the residue outwards. [ ]: non-standard residue; d: D form. The star is where a group is joined. ξ: configuration not given here. NH(4-cHex-phenyl) = c1cc(C2CCCCC2)ccc1N*; X4 = NC1=NCCC([C@H](N[*:1])C(=O)[*:2])N1; ΔAla(Z-3-ureido) = NC(=O)N/C=C(\N)C(=O)O; ΔDap(Z) = O=C(/C(=C/N[*:3])N[*:1])[*:2]; X6 = c1ccc(Cc2ccc(N*)cc2)cc1; β3hOrn = NCCC[C@H](N)CC(=O)*; X7 = c1cc(N2CCCCC2)ccc1N*; Dap = NC[C@H](N)C(=O)O; CO = O=C([*:1])[*:2]; X5 = Clc1cc(N*)ccc1I; ξDap = NCC(N)C(=O)O

Holding throughout (format): functional
The subject of test [1] is Enterococcus faecium. The experiment in a line: In vitro antibacterial activity against Enterococcus faecium (vancomycin, methicillin and ciprofloxacin resistant), expressed as minimum inhibitory concentration (MIC).
Test [2] deals with Enterococcus faecalis. Briefly: In vitro antibacterial activity against Enterococcus faecalis (vancomycin, methicillin and ciprofloxacin resistant), expressed as minimum inhibitory concentration (MIC).
A further test relates to Staphylococcus aureus. Briefly: In vitro antibacterial activity against methicillin-resistant Staphylococcus aureus (MRSA), expressed as minimum inhibitory concentration (MIC).
The next test has as its system Escherichia coli. Briefly: In vitro antibacterial activity against Escherichia coli, expressed as minimum inhibitory concentration (MIC).
A further test deals with Pasteurella multocida. Briefly: In vitro antibacterial activity against Pasteurella multocida, expressed as minimum inhibitory concentration (MIC).
Test [3] has as its system Mus musculus. The experiment in a line: In vivo activity against Pasteurella multocida in mice after subcutaneous administration. The settings on record: sc, read-out: PD50.
Test [4] deals with Enterococcus faecium. Briefly: Protective dose against both MRSA and vancomycin-resistant Enterococcus faecium. The settings on record: read-out: PD50.
Test [5] relates to Mus musculus. The experiment in a line: In vivo activity against Pasteurella multocida in mice. The settings on record: read-out: PD50.
Test [6] concerns Enterococcus faecalis. Briefly: In vitro antibacterial activity against E. faecalis( vancomycin, methicillin and ciprofloxacin resistant), expressed as minimum inhibitory concentration (MIC).
The test system of test [7] is Mus musculus. The experiment in a line: In vivo activity against Pasteurella multocida in mice after subcutaneous administration; Range is 8-10 mg/kg. The settings on record: sc, read-out: PD50.
Test [8] relates to Mus musculus. The experiment in a line: In vivo activity against Escherichia coli in mice after subcutaneous administration; Range is 8-10 mg/kg. The settings on record: sc, read-out: PD50.

What is called MIC is the lowest concentration that inhibits growth of the organism. The low end stands for a more susceptible organism, the high end for a less susceptible organism. As for `CN[C@H](CC(C)C)C(=O)N[C@H]1C(=O)N[C@@H](CC(N)=O)C(=O)N[C@H]2C(=O)N[C@H]3C(=O)N[C@H](C(=O)N[C@H](C(=O)O)c4cc(O)cc(O)c4-c4cc3ccc4O)[C@H](O)c3ccc(c(Cl)c3)Oc3cc2cc(c3O[C@@H]2O[C@H](CO)[C@@H](O)[C@H](O)[C@H]2O[C@H]2C[C@](C)(N)[C@H](O)[C@H](C)O2)Oc2ccc(cc2Cl)[C@H]1O` [VANCOMYCIN], the MIC against Enterococcus faecium [1] is above 100 µg/mL; against Enterococcus faecalis [2] it was above 100 µg/mL; against Staphylococcus aureus it was 0.78 µg/mL (≈ 0.538 µM).

In the case of `NCC[C@@H](O)[C@H](N)CC(=O)NC1CNC(=O)[C@@H](C2CCN=C(N)N2)NC(=O)/C(=C/NC(=O)Nc2ccc(C3CCCC3)cc2Cl)NC(=O)[C@@H](CO)NC(=O)[C@@H](CO)NC1=O` (stereo partly drawn), the minimal inhibitory concentration (MIC) in the test with Enterococcus faecium [1] is 3.12 µg/mL (≈ 3.61 µM); against Enterococcus faecalis [2], 6.25 µg/mL (≈ 7.23 µM); against Staphylococcus aureus, 3.12 µg/mL (≈ 3.61 µM).

For the compound `C[C@@H]1NC(=O)C(N)CNC(=O)[C@H](C2CCN=C(N)N2)NC(=O)/C(=C/Nc2ccc(Cl)c(Cl)c2)NC(=O)[C@H](CNC(=O)C[C@@H](N)CCCN)NC1=O.NCCC[C@H](N)CC(=O)NC[C@@H]1NC(=O)[C@H](CO)NC(=O)C(N)CNC(=O)[C@H](C2CCN=C(N)N2)NC(=O)/C(=C/Nc2ccc(Cl)c(Cl)c2)NC1=O` (stereo partly drawn), the MIC amounted to 6.25 µg/mL in the test with Escherichia coli; 12.5 µg/mL in the test with Enterococcus faecium [1]; 25 µg/mL against Enterococcus faecalis [2]; 0.39 µg/mL in the test on Pasteurella multocida; 0.78 µg/mL with Staphylococcus aureus. In addition, the ED50 in the test with Mus musculus [3] came to 6 mg/kg.

Turning to `NCCC[C@H](N)CC(=O)NC[C@@H]1NC(=O)[C@H](CO)NC(=O)C(N)CNC(=O)[C@H](C2CCN=C(N)N2)NC(=O)/C(=C/NC(=O)Nc2cc(Cl)c(Cl)c(Cl)c2)NC1=O` (stereo partly drawn), the ED50 in the test with Enterococcus faecium [4] was determined as 3 mg/kg; in the test with Mus musculus [5], 4 mg/kg. Besides, the MIC in the test with Escherichia coli is 12.5 µg/mL (≈ 14.7 µM); against Enterococcus faecium [1], 1.56 µg/mL (≈ 1.84 µM); against Enterococcus faecalis [2] it was 3.12 µg/mL (≈ 3.68 µM); against Pasteurella multocida, 0.2 µg/mL (≈ 0.236 µM); against Staphylococcus aureus, 0.78 µg/mL (≈ 0.92 µM).

`C[C@@H]1NC(=O)C(N)CNC(=O)[C@H](C2CCN=C(N)N2)NC(=O)/C(=C/Nc2nc(-c3ccc(Br)cc3)cs2)NC(=O)[C@H](CNC(=O)C[C@@H](N)CCCN)NC1=O.NCCC[C@H](N)CC(=O)NC[C@@H]1NC(=O)[C@H](CO)NC(=O)C(N)CNC(=O)[C@H](C2CCN=C(N)N2)NC(=O)/C(=C/Nc2nc(-c3ccc(Br)cc3)cs2)NC1=O` (stereo partly drawn): the minimum inhibitory concentration (MIC) was 100 µg/mL with Escherichia coli; 12.5 µg/mL with Enterococcus faecium [1]; 50 µg/mL against Enterococcus faecalis [2]; 3.13 µg/mL with Pasteurella multocida; 12.5 µg/mL against Staphylococcus aureus.

Consider `C[C@@H]1NC(=O)C(N)CNC(=O)[C@H](C2CCN=C(N)N2)NC(=O)/C(=C/Nc2ccc(C3CCCCC3)cc2)NC(=O)[C@H](CNC(=O)C[C@@H](N)CCCN)NC1=O.NCCC[C@H](N)CC(=O)NC[C@@H]1NC(=O)[C@H](CO)NC(=O)C(N)CNC(=O)[C@H](C2CCN=C(N)N2)NC(=O)/C(=C/Nc2ccc(C3CCCCC3)cc2)NC1=O` (stereo partly drawn), for which the MIC is 6.25 µg/mL against Escherichia coli; 6.25 µg/mL against Enterococcus faecium [1]; 12.5 µg/mL with Enterococcus faecalis [2]; 0.2 µg/mL in the test with Pasteurella multocida; 1.56 µg/mL with Staphylococcus aureus. Besides, the ED50 in the test on Mus musculus [3] worked out at 2 mg/kg.

For the compound `C[C@@H]1NC(=O)C(N)CNC(=O)[C@H](C2CCN=C(N)N2)NC(=O)/C(=C/NC(N)=O)NC(=O)[C@H](CNC(=O)C[C@@H](N)CCCN)NC1=O.NCCC[C@H](N)CC(=O)NC[C@@H]1NC(=O)[C@H](CO)NC(=O)C(N)CNC(=O)[C@H](C2CCN=C(N)N2)NC(=O)/C(=C/NC(N)=O)NC1=O` (stereo partly drawn) (H-[ξDap]S[Dap](β3hOrn)[ΔAla(Z-3-ureido)][X4]; lactam 1-C), the MIC in the test with Escherichia coli was 200 µg/mL; with Enterococcus faecium [1], above 1000 µg/mL; with Pasteurella multocida, 50 µg/mL; in the test on Enterococcus faecalis [6], above 1000 µg/mL; with Staphylococcus aureus, 100 µg/mL.

As for `C[C@@H]1NC(=O)C(N)CNC(=O)[C@H](C2CCN=C(N)N2)NC(=O)C(CNC(=O)Nc2ccc(I)c(Cl)c2)NC(=O)[C@H](CNC(=O)C[C@@H](N)CCCN)NC1=O.NCCC[C@H](N)CC(=O)NC[C@@H]1NC(=O)[C@H](CO)NC(=O)C(N)CNC(=O)[C@H](C2CCN=C(N)N2)NC(=O)C(CNC(=O)Nc2ccc(I)c(Cl)c2)NC1=O` (stereo partly drawn) (H-[ξDap]S[Dap](β3hOrn)[ξDap]([CO-X5])[X4]; lactam 1-C), the MIC turned out to be 6.25 µg/mL in the test with Escherichia coli; 12.5 µg/mL against Enterococcus faecium [1]; 50 µg/mL against Enterococcus faecalis [2]; 0.78 µg/mL in the test with Pasteurella multocida; 3.12 µg/mL with Staphylococcus aureus. For the same compound, the ED50 in the test on Mus musculus [5] was 7 mg/kg.

For `NCCC[C@H](N)CC(=O)NC[C@@H]1NC(=O)[C@H](CO)NC(=O)C(N)CNC(=O)[C@H](C2CCN=C(N)N2)NC(=O)/C(=C/NC(=O)Nc2ccc(N3CCCCC3)cc2)NC1=O` (stereo partly drawn) (H-[ξDap]S[Dap](β3hOrn)[ΔDap(Z)]([CO-X7])[X4]; lactam 1-C), the MIC in the test with Escherichia coli was 50 µg/mL (≈ 60.4 µM); against Enterococcus faecium [1] it was 100 µg/mL (≈ 121 µM); in the test with Enterococcus faecalis [2] it was 100 µg/mL (≈ 121 µM); against Pasteurella multocida, 1.56 µg/mL (≈ 1.88 µM); with Staphylococcus aureus, 3.12 µg/mL (≈ 3.77 µM).

`NCCC[C@H](N)CC(=O)NC[C@@H]1NC(=O)[C@H](CO)NC(=O)C(N)CNC(=O)[C@H](C2CCN=C(N)N2)NC(=O)/C(=C/NC(=O)Nc2ccc(C3CCCCC3)cc2)NC1=O` (stereo partly drawn) (H-[ξDap]S[Dap](β3hOrn)[ΔDap(Z)]([CO-NH(4-cHex-phenyl)])[X4]; lactam 1-C): the MIC with Escherichia coli stood at 25 µg/mL (≈ 30.2 µM); against Enterococcus faecium [1] it was 1.56 µg/mL (≈ 1.89 µM); against Enterococcus faecalis [2], 3.12 µg/mL (≈ 3.77 µM); against Pasteurella multocida, 0.39 µg/mL (≈ 0.472 µM); in the test on Staphylococcus aureus, 1.56 µg/mL (≈ 1.89 µM).

Regarding `C[C@@H]1NC(=O)C(N)CNC(=O)[C@H](C2CCN=C(N)N2)NC(=O)/C(=C/NC(=O)Nc2ccc(Cc3ccccc3)cc2)NC(=O)[C@H](CNC(=O)C[C@@H](N)CCCN)NC1=O.NCCC[C@H](N)CC(=O)NC[C@@H]1NC(=O)[C@H](CO)NC(=O)C(N)CNC(=O)[C@H](C2CCN=C(N)N2)NC(=O)/C(=C/NC(=O)Nc2ccc(Cc3ccccc3)cc2)NC1=O` (stereo partly drawn) (H-[ξDap]S[Dap](β3hOrn)[ΔDap(Z)]([CO-X6])[X4]; lactam 1-C), the MIC against Escherichia coli came to 12.5 µg/mL; with Enterococcus faecium [1] it was 3.12 µg/mL; with Enterococcus faecalis [2] it was 6.25 µg/mL; against Pasteurella multocida it was 0.78 µg/mL; in the test with Staphylococcus aureus, 1.56 µg/mL.

On to `NCCC[C@H](N)CC(=O)NC1CNC(=O)[C@H](C2C[C@@H](O)N=C(N)N2)NC(=O)/C(=C/Nc2ccc(Cl)c(Cl)c2)NC(=O)[C@H](CO)NC(=O)[C@H](CO)NC1=O` (stereo partly drawn), for which the ED50 in the test on Mus musculus [7] and in the test with Mus musculus [8] was 10 mg/kg each time. Moreover, the minimal inhibitory concentration (MIC) with Escherichia coli was found to be 12.5 µg/mL (≈ 15.9 µM); against Enterococcus faecium [1] it was 25 µg/mL (≈ 31.7 µM); against Enterococcus faecalis [2], 50 µg/mL (≈ 63.5 µM); with Pasteurella multocida it was 0.78 µg/mL (≈ 0.99 µM); against Staphylococcus aureus, 12.5 µg/mL (≈ 15.9 µM).

The record behind these values is ChEMBL document CHEMBL1129919, “Cyclic homopentapeptides 1. Analogs of tuberactinomycins and capreomycin with activity against vancomycin-resistant enterococci and Pasteurella” (1997).
